Source: article PMC12090809 (Journal of Virology, 2025)
“Also recorded” adds a separate entry of the source.

How the values were obtained:
[1] = tested on: SHIV AD8-EO-infected rhesus macaques; assay: Safety of subcutaneous BNM-III-170 dosing regimens in SHIV AD8-EO-infected RMs; type: in vivo, Macaca mulatta; settings: for Blood chemistries / Clinical signs: SHIV AD8-EO-infected RMs, one line per animal; for ALP: normal range 83–363 U/L
SHIV AD8-EO = assay: Plasma viral loads (RT-qPCR) in SHIV AD8-EO-infected RMs during BNM-III-170 treatment; type: in vivo, Macaca mulatta
Experimental: Next, we evaluated the ability of BNM-III-170 to reduce viral replication in these animals, measuring plasma viral loads (PVLs) at multiple timepoints during and immediately following each BNM-III-170 treatment cycle. PVLs declined by 0.92 logs in animal 14C056 following the 3 × 36 mg/kg, 3-day interval treatment cycle (between 0 h of the first dose and 9 days post third dose). […] Importantly, given the small number of animals and absence of untreated controls, it is difficult to determine if the observed reduction in PVLs in animal 14C056 was due to BNM-III-170 treatment or to the natural course of SHIV AD8 EO-infection. This highlights the need for additional, larger studies that include an untreated control arm to more accurately determine the virologic impact of BNM-III-170 on SHIV in vivo.
Plasma SHIV viral loads (SHIV-RNA copies/mL) were determined as previously described ([61]) using quantitative reverse transcription PCR (RT-qPCR) assays with a limit of detection of 60 copies/mL.

[2] = tested on: CEM.NKr-CCR5-sLTR-Luc cells infected with SHIV AD8-EO; type: cell-based
[3] = tested on: CH058TF-infected CEM.NKr cells; type: cell-based, HIV-1; settings: 50 μM added BNM-III-170 vs absence
Experimental: Cell surface staining was performed at 48 h post-infection. Mock-infected or HIV-1-infected CEM.NKr or primary CD4+ T cells were incubated for 45 min at 37°C with anti-Env mAbs (5 µg/mL), plasma from PWH (1:1,000 dilution), or plasma from infected RMs (1:500). When indicated, antibody/plasma incubation was done in the presence of 50 µM of BNM-III-170, or equivalent amounts of DMSO. To evaluate the capacity of plasma from SHIV-AD8-EO-infected RMs treated with BNM-III-170 to recognize HIV-1-infected cells, a 1:10 plasma dilution was used. Cells were then washed twice with PBS and stained with the appropriate Alexa Fluor 647-conjugated secondary antibody (2 µg/mL) for 20 min and the viability dye AquaVivid (Thermo Fisher Scientific) at room temperature. Cells were then washed twice with PBS and fixed in a 2% PBS-formaldehyde solution. […]
Measurement of ADCC using the FACS-based assay was performed at 48 h post-infection, as previously described. […] The percentage of ADCC was calculated with the following formula: (% of p24+/p27+ cells in Targets plus Effectors) − (% of p24+/p27+ cells in Targets plus Effectors plus Abs) / (% of p24+/p27+ cells in Targets) by gating on infected live target cells.

[4] = 36 mg/kg SQ, 2 doses, dosing interval 1 day, 36 mg/kg
[5] = 36 mg/kg SQ, 3 doses, dosing interval 3 days, 36 mg/kg
[6] = animal 14C013 at necropsy, 2 × 36 mg/kg SQ every 24 h

CNCc1ccc2c(c1)C[C@H](CN=C(N)N)[C@H]2NC(=O)C(=O)Nc1ccc(Cl)c(F)c1.O=C(O)C(F)(F)F.O=C(O)C(F)(F)F [BNM-III-170]
Blood chemistries ([1]; 24 mg/kg SQ, 1 dose, 24 mg/kg): Transient elevation of CPK, troponin I | Blood chemistries [1, 4]: Elevated AST, ALT, amylase, CPK, troponin I; also recorded: Transient elevation of ALP, CPK, troponin I | Clinical signs [1, 4]: pale mucus membranes, weak femoral pulses, and dyspnea; also recorded: Animal experienced acute respiratory distress and tachycardia at 6 hr post dose #2 and was sacrificed; inconclusive path report, pale liver noted; also recorded: Enlarged liver and spleen, lesion at BNM-III-170 injection site | Blood chemistries [1, 5]: Transient elevation of AST, ALT, CPK; also recorded: Elevated BUN, BUN/Cr, CPK; low potassium | Clinical signs [1, 5]: mild erythema at the BNM-III-170 injection sites; also recorded: Animal reached endpoint criteria (weight loss > 25%) due to chronic diarrhea that started prior to CD4mc treatments, animal sacrificed 3 hr post dose #2 | Blood chemistries ([1]; 36 mg/kg SQ, 3 doses, dosing interval 7 days, 36 mg/kg): Transient elevation of AST, ALP, TRIG, CPK; also recorded: Transient elevation of AST, ALT, ALP, CSK; also recorded: Transient elevation of Glob, ALT, ALP, GGT, AMY, CPK | adverse reactions ([1]; SHIV-infected RMs 14C056 and 34901, 1 × 24 mg/kg SQ): No adverse reactions were observed | clinical signs of toxicity ([1]; SHIV-infected RMs, 36 mg/kg SQ doses at 7-day dosing interval): no clinical signs of toxicity were noted | ALT [1, 6]: 123 U/L | AST [1, 6]: 145 U/L | troponin I [1, 6]: 0.28 ng/mL | amylase ([1]; animal 14C013 at necropsy, 2 × 36 mg/kg SQ every 24 h, normal range 148–316 U/L): 421 U/L | AST ([1]; animal 14C056, 24 h after dose 3, 36 mg/kg SQ every 3 days): 109 U/L | troponin I ([1]; animal 34901, 6 h post-dose, 1 × 24 mg/kg SQ, resolved by 5 days post-treatment): 0.090 ng/mL | potassium ([1]; animal 34901 at necropsy (3 h after dose 2, 36 mg/kg SQ every 3 days), 2.4 vs 2.8 at 0 h of cycle, normal range 3–5 mmol/L): 2.4 mmol/L | blood urea nitrogen ([1]; animal 34901 at necropsy (3 h after dose 2, 36 mg/kg SQ every 3 days), 34 at 0 h of cycle, normal range 9–27, likely due to prolonged diarrhea): 28 mg/dL | ratio of blood urea nitrogen to creatinine ([1]; animal 34901 at necropsy (3 h after dose 2, 36 mg/kg SQ every 3 days), 37.8 at 0 h of cycle, normal range 12.5–33.3): 35 | troponin I ([1]; animal RYj17, 6 h after dose 1 of 2 × 36 mg/kg SQ every 24 h, resolved by 24 h): 0.049 ng/mL | ALP ([1]; animal RYj17, 24 h after dose 2 of 2 × 36 mg/kg SQ every 24 h): 405 U/L | ALP ([1]; animal RYj17, 16 days later (after 24 h post dose 2), 2 × 36 mg/kg SQ every 24 h): 715 U/L | decline in plasma viral loads (PVLs) (SHIV AD8-EO; animal 14C056, 3 × 36 mg/kg SQ, 3-day interval, between 0 h of first dose and 9 days post third dose, no untreated controls): 0.92 logs | change in plasma viral loads (PVLs) (SHIV AD8-EO; animals 14C013, RYj17, 34901, following BNM-III-170 treatments): no similar changes in PVLs were observed | binding of plasma from PWH to infected cells [2]: enhance binding of plasma from PWH | ADCC activity of Abs in 0 h RM plasma against infected cells [3]: significantly increased | binding of Abs in 0 h RM plasma to infected cells [3]: significantly increased
